By IC50 is commonly meant the point on the concentration scale where inhibition reaches its midpoint. Usually AC50 stands for the midpoint of the concentration-response curve, whichever way the signal moves.

The source of these data is ChEMBL document CHEMBL1201862, “PubChem BioAssay data set” (2004).

In assay [1] the target is T1, Leucine aminopeptidase (Plasmodium falciparum 3D7, UniProt Q8IL11).
T1 sequence (Q8IL11 whole entry): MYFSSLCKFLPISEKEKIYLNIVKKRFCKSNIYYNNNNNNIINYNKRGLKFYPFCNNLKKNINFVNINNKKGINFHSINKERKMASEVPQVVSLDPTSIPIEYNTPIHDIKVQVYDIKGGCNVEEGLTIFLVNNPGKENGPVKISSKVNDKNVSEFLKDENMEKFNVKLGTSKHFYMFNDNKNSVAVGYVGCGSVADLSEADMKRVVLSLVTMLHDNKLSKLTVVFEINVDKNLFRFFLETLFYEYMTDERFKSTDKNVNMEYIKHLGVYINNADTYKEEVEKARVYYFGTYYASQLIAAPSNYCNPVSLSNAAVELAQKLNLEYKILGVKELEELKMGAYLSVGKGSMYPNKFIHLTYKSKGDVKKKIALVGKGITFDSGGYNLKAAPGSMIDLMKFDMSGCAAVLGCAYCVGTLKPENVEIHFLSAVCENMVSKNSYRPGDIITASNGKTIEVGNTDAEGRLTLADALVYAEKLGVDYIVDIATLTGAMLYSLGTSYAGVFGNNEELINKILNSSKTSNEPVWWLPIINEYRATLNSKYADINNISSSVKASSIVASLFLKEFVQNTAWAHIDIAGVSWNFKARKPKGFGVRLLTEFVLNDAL
The assay can be described thus: P. falciparum M17LAP inhibitors, primary screen, biochemical, fluorogenic H-Leu-NHMec substrate, 1536-well (AID 1619). It is filed as functional.

The target in assay [2] is T2, Aminopeptidase N (Plasmodium falciparum FcB1/Columbia, UniProt O96935).
T2 sequence (O96935 whole entry): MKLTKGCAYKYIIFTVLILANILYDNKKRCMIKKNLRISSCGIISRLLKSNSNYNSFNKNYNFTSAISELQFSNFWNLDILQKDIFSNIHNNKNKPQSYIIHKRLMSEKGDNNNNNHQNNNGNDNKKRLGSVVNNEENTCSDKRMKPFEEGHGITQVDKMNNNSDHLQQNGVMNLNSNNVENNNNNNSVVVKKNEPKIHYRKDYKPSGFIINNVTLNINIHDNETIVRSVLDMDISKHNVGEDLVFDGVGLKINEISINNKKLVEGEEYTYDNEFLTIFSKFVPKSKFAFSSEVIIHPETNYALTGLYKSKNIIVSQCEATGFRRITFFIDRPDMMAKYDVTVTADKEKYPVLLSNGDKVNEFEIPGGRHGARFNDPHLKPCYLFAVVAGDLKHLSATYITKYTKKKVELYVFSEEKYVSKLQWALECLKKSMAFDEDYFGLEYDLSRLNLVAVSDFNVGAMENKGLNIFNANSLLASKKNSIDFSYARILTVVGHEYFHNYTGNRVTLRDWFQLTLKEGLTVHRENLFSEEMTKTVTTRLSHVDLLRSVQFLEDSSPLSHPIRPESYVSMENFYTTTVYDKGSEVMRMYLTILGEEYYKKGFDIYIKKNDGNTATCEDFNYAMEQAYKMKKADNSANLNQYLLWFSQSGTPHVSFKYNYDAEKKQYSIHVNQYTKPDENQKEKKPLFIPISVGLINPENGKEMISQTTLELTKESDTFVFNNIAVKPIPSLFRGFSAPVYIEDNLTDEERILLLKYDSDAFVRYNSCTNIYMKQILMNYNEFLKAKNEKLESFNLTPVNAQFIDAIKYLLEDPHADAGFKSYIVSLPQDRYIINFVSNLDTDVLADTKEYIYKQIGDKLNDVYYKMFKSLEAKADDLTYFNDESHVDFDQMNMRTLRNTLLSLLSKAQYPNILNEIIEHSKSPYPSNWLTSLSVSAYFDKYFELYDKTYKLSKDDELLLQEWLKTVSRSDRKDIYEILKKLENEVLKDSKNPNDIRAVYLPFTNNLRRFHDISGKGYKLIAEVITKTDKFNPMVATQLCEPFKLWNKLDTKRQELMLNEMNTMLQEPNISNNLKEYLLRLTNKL
The assay can be described thus: P. falciparum M1AAP inhibitors, biochemical, fluorogenic H-Leu-NHMec substrate, 1536-well (AID 1445). The arrangement: species or system Plasmodium falciparum 3D7, 3D7.

Assay [3] is described as follows: inhibitors of clade B AD8 Env fusion, dose response, cell-based, cherry-pick (AID 652062).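 Note: luciferase signal from cell-cell fusion driven by HIV-1 clade B AD8 Env; potency is for inhibitors of fusion seen as a drop in luminescence.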 The assay is classed as functional.
Assay [4] can be described thus: off-target signal loss in HeLa-CEM21 co-culture – HeLa F-luc CTL cells, cherry-picked, counter-screen for HIV-1 Env fusion inhibitor project, dose response (AID 652040).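 Note: potency for signal decrease marking cytotoxic or nonspecific inhibition.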 It is filed as functional, cell-based. A general note: The purpose of a counterscreen is to sort out artefacts and off-target activity.
Assay [5] in a line: inhibitors of HIV Env-driven cell fusion, dose response, cherry-pick (AID 652057). It is filed as functional, cell-based.
A short description of assay [6]: ZM109 Env clade C HIV-1 fusion inhibitors, dose response, HeLa effector, CEM target cells, luciferase, cherry-pick (AID 652058). It is filed as functional, cell-based.
The target in assay [7] is T3, Short transient receptor potential channel 4 (Mus musculus, UniProt Q9QUQ5).
T3 sequence (Q9QUQ5 whole entry): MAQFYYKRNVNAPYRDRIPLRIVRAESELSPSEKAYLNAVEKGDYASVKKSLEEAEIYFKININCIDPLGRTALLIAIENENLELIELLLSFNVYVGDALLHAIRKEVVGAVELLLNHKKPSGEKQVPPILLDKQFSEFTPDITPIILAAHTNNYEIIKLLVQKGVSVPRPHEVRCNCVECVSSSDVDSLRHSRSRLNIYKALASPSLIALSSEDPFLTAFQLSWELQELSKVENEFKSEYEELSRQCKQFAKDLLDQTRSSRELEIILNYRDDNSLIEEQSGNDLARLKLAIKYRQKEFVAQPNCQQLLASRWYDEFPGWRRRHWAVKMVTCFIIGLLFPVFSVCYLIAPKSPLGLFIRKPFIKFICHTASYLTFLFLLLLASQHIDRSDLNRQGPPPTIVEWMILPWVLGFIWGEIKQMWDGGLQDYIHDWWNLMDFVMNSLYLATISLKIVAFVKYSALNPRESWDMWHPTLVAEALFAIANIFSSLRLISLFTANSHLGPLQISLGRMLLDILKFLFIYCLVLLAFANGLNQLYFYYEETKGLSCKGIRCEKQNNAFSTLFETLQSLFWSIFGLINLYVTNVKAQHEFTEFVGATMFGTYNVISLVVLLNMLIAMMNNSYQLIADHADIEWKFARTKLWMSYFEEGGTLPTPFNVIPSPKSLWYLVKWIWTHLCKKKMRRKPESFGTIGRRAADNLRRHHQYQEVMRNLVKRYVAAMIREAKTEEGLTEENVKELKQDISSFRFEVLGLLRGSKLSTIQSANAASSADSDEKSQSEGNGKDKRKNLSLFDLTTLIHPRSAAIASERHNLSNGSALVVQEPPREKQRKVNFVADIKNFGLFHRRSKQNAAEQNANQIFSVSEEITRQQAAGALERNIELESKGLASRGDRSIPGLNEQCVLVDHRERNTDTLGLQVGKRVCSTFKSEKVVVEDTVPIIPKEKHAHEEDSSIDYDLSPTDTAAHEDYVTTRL
Kind of assay: mouse TRPC4 channel activators, dose response, cell-based, HEK293 TRPC4/mu-opioid, Fluo-4 calcium (AID 434937). The assay is classed as functional.

The nature of assay [8]: inhibitors of intracellular T. cruzi replication, confirmation, NIH3T3 host cells, beta-gal luminescence (AID 2044).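 Note: intracellular parasites grown in NIH/3T3 mouse fibroblasts as host cells; luminescent beta-galactosidase reporter signal from transgenic T. cruzi replicating inside host cells; inhibitors lower the luminescence signal.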 The assay is classed as functional, cell-based.
Assay [9] is described as follows: cytotoxicity toward NIH3T3 fibroblasts, dose response, counter-screen, cell-based, ATP luminescence, mouse fibroblasts (AID 2010).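 Note: cells exposed to compound for about 90 hours before reading.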 The assay is classed as functional.
For assay [10], the target named is T4, Corticotropin-releasing factor receptor 2/Corticotropin-releasing factor-binding protein (Homo sapiens, UniProt P24387+Q13324).
T4 sequence (Q13324 whole entry): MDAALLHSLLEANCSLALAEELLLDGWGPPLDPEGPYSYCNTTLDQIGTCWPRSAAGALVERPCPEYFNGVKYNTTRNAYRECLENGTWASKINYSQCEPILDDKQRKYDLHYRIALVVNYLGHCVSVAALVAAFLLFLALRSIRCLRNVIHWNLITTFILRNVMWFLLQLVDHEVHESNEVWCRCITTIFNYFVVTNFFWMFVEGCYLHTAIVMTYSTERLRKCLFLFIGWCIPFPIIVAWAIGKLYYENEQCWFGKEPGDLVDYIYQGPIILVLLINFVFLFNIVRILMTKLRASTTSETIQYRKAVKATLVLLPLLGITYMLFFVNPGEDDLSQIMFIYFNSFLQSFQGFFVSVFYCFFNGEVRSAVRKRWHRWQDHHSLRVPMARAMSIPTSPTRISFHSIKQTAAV
T4 sequence (P24387 whole entry): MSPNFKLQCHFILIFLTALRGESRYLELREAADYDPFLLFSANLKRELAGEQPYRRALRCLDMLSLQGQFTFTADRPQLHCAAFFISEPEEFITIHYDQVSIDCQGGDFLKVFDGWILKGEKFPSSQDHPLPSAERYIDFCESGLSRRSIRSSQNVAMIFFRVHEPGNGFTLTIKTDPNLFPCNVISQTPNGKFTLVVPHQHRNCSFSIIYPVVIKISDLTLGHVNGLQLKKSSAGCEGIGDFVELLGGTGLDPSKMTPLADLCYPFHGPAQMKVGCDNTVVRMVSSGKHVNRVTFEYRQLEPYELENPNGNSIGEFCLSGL
The assay can be described thus: activators of CRF receptor 2 with binding protein – uHTS hits, confirmation (AID 602473). The assay is classed as functional. Conditions: read-out: EC50_Mean.

Assay [11] concerns the target Cytochrome P450 2C9 (Homo sapiens, UniProt P11712).
Assay [12] concerns the target Cytochrome P450 2C19 (Homo sapiens, UniProt P33261). The assay can be described thus: Cytochrome panel assay with activity outcomes. Panel member name: p450-cyp2c19 Compounds with AC50 equal or less than 10 uM are considered active. The assay is classed as functional. Conditions: read-out: AC50.

Each structure is given as a SMILES string. The source made the active and inactive calls. Bounds are passed on as bounds.

Cytochrome P450 2C19, sequence (P33261 whole entry): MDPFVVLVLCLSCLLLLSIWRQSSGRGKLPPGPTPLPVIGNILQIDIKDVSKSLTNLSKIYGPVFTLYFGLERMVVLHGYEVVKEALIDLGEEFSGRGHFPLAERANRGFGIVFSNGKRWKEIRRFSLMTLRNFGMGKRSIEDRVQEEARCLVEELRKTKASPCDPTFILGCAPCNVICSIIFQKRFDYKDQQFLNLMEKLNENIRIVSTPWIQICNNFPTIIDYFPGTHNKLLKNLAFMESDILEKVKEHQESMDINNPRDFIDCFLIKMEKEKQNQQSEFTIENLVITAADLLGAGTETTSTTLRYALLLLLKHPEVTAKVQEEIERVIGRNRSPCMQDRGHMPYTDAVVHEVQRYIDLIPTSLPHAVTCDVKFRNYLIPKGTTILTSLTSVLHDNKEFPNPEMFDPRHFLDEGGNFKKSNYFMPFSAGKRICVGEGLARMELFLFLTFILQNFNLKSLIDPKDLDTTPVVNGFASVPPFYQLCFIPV
Cytochrome P450 2C9, sequence (P11712 whole entry): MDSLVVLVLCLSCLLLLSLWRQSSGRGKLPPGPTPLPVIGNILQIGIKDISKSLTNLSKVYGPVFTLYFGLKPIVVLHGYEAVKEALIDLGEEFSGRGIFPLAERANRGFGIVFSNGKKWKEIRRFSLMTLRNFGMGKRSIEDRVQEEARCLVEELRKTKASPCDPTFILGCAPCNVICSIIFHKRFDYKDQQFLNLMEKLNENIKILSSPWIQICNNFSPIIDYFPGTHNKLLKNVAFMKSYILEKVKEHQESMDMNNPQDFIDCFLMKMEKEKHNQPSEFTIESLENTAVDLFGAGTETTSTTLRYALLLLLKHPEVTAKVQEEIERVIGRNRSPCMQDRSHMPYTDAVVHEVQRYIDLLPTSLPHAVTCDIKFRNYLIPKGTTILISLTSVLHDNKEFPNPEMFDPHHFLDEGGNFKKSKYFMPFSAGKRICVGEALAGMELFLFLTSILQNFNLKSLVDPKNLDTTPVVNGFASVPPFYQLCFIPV

As to `COc1nccnc1NS(=O)(=O)c1ccc(/N=C/c2c(C)nn(-c3ccc(C)c(C)c3)c2O)cc1`, in assay [1], the IC50 was 19.3 µM (active).

For the compound `CC1CCC2(CC1)NC(=O)N(CC(=O)Nc1ccc3c(c1)OCCO3)C2=O` (stereo not drawn), in [1], the IC50 was 13.8 µM (active). As to `CC(C)S(=O)(=O)C1=NSC2=NC(=O)/C(=C\c3c[nH]c4ccccc34)C(=N)N21`, the IC50 in assay [2] was 37.3 µM (active). For the compound `CCCCc1nc2sc3c(c2c(=O)n1NC(=O)c1ccco1)CC(C)(C)OC3`, in [2], the IC50 was 42.8 µM (active).

In the case of `COc1ccc(C(C(=O)NC2CCCC2)N(C(=O)c2ccoc2C)c2ccc(C)cc2)cc1` (stereo not drawn), the AC50 was 11.7 µM (active) in assay [3], 8.48 µM (active) in assay [4], 5.46 µM (active) in assay [5] and 3.47 µM (active) in [6]. Turning to `O=c1[nH]c2ccc(Cl)cc2c(-c2ccccc2)c1CN1CCOCC1`, the IC50 in assay [2] was 81.5 µM (active). For `CN(C)CCCN(C(=O)c1ccc(C(=O)c2ccccc2)cc1)c1nc2ccc(F)cc2s1`, the EC50 in assay [7] is 5.96 µM (active); in [8] it was 0.104 µM (active); in assay [9], > 60 µM (not active).

In the case of `O=C1c2ccccc2S(=O)(=O)c2cc(C(=O)N(c3ccccn3)c3ccccn3)ccc21`, the figures for the EC50 in assay [10] and in assay [7] were 4.15 µM (active) and 1.88 µM (active), respectively.

With `COc1ccc(C(CNC(=O)Cc2cccs2)N(C)C)cc1` (stereo not drawn), the EC50 in assay [7] was 0.237 µM (active). `O=C(CSc1ncccc1C(=O)O)NCc1ccc(F)cc1`: in assay [1], the IC50 was 42.7 µM (active). Take `CCc1cc(=O)oc2c(C)c(O)c(CN3CCCCC3)cc12`: in assay [2], the IC50 was 39.9 µM (active).

Take `CCOc1ccccc1CN1CCNC(=O)C1CC(=O)NCCc1ccccn1` (stereo not drawn): the EC50 in assay [7] is 5.96 µM (active).

Regarding `Cc1cc(C=C2C(=O)c3ccccc3C2=O)c(C)n1-c1cccc(C(=O)O)c1`, the concentration for half-maximal inhibition (IC50) in assay [1] is 18.6 µM (active).

Take `CC12CC3CC(C)(C1)CC(C(=O)NCc1ccncc1)(C3)C2`: the AC50 in assay [3] was 22.4 µM (active); in assay [4], 13.5 µM (active); in [5], 7.75 µM (active); in [6] it was 4.58 µM (active). Regarding `NC(CC(=O)O)c1ccc(Br)cc1` (stereo not drawn), in assay [2], the IC50 was 69.2 µM (active). Take `COC(=O)[C@@]1(Cc2ccc(F)cc2)[C@H]2c3cc(C(=O)N(C)C)n(CCc4ccccn4)c3C[C@H]2CN1C(=O)c1ccccc1`: the EC50 in [7] was 5.96 µM (active). The AC50 is 10 µM (inconclusive) in assay [11] and 39.8 µM (inconclusive) in [12]. For the compound `CCn1c(N2CCN(C(S)=NCCc3ccccc3)CC2)nc2ccccc21`, the EC50 in [7] is 0.376 µM (active).
